pIC50: −log10 of the molar value.
Each molecule was assayed against T1, human PI3Kδ (Homo sapiens, UniProt O00329) (assay: Biochemical PI3Kdelta (TR-FRET Adapta Universal Kinase Assay)). Conditions: mean of n measurements, read-out: PIK3d/ IC50.
T1 construct: made in house
T1 sequence (O00329 2-1044 limits assumed): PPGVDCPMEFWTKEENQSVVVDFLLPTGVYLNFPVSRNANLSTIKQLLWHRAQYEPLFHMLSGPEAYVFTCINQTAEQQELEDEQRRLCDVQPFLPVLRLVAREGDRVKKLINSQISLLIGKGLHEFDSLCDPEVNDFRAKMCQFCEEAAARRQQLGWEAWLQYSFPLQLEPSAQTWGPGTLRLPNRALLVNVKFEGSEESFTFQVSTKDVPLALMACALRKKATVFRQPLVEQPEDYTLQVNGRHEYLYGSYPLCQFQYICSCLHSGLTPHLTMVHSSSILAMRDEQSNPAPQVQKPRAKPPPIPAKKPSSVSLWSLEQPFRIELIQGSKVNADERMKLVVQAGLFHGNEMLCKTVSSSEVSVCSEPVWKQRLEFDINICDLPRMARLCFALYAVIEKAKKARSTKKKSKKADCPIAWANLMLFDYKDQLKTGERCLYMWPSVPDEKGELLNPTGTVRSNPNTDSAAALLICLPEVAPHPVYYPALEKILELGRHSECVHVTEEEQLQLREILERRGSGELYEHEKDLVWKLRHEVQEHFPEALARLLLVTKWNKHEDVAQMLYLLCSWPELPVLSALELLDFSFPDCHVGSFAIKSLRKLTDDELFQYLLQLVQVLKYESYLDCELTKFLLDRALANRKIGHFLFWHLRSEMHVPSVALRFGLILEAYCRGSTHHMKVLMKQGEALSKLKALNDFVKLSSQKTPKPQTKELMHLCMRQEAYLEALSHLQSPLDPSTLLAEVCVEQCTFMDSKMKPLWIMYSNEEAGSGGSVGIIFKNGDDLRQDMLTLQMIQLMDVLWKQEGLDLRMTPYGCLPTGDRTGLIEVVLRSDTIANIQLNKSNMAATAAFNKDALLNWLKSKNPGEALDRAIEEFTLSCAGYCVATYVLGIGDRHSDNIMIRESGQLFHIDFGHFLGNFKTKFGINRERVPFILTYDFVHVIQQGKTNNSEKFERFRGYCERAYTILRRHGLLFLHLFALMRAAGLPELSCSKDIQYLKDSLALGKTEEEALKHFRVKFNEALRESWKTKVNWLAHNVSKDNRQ
Procedure: Test compounds were dissolved in DMSO (10 mM) and transferred into 1.4 mL flat bottom or V-shaped Matrix tubes carrying a unique 2D matrix chip by individual Novartis compound hubs. The numbers of these chips were distinctively linked to Novartis Pharma Numbers. The stock solutions were stored at −20° C. if not used immediately. For the test procedure the vials were defrosted and identified by a scanner whereby a working sheet was generated that guided the subsequent working steps.
Compounds were either manually diluted in DMSO for individual experiments (96 wells enabling 10 cpds at 8 (single points) concentrations) as described in or prepared as described below if tested for profiling in 384-wells. This format enabled the assay of maximally 40 individual test compounds at 8 concentrations (single points) including 4 reference compounds. The dilution protocol included the production of “pre-dilution plates”, “master plates” and “assay plates”.
96 polypropylene well plates were used as pre-dilution plates. A total of 4 pre-dilution plates were prepared including 10 test compounds each on the plate positions A1-A10, one standard compound at A11 and one DMSO control at A12. Programs have been written to run these pipetting steps on the HamiltonSTAR robots.
Identical “assay plates” were then prepared by pipetting 50 nL each of compound dilutions of the “master plates” into 384-well “assay plates”. The compounds were mixed with 4.5 μL of assays components plus 4.5 μL enzyme corresponding to a 1:181 dilution enabling the final concentration of 10, 3.0, 1.0, 0.3, 0.1, 0.03, 0.01 and 0.003 μM, respectively. The preparation of the “master plates” was handled by the Matrix PlateMate Plus robot and replication of “assay plates” by the HummingBird robot.
Catalytically active human PI3Kα, PI3Kβ, PI3Kδ, and mTOR were cloned, expressed and purified as described (Maira S M, Stauffer F, Brueggen J, Furet P, Schnell C, Fritsch C, Brachmann S, Chène P, de Pover A, Schoemaker K, Fabbro D, Gabriel D, Simonen M, Murphy L, Finan P, Sellers W, García-Echeverría C (2008), Mol Cancer Ther. 7:1851-63 and Maira S M, Pecchi S, Brueggen J, Huh K, Schnell C, Fritsch C, Nagel T, Wiesmann M, Brachmann S, Dorsch M, Chène P, Schoemaker K, De Pover A, Menezes D, Fabbro D, Sellers W, García-Echeverría C, Voliva C F (2011), Mol. Cancer Ther. accepted).
The TR-FRET Adapta™ Universal Kinase Assay Kit was purchased from Invitrogen Corporation (Carlsbad/CA, USA) (Cat. No. PV5099). The kit contains the following reagents: Adapta Eu-anti-ADP Antibody (Europium labeled anti-ADP antibody in HEPES buffered saline, Cat. No. PV5097), Alexa Fluor® 647-labeled ADP tracer (Alexa Fluor® 647-labeled ADP tracer in HEPES buffered saline, Cat. No. PV5098), proprietary TR-FRET dilution buffer pH 7.5 (Cat. No. PV3574).
PIK3CD substrate Phosphatidylinositol was obtained from Invitrogen (vesicules consisting of 2 mM PI in 50 mM HEPES pH7.5; Cat. No. PV5371). PIK3CG substrate Phosphatidylinositol-4,5-bisphosphate (PIP(4,5)2 was obtained from Invitrogen (PIP2:PS large unilamellar vesicules consisting of 1 mM PIP2: 19 mM PS in 50 mM HEPES pH7.5, 3 mM MgCl2, 1 mM EGTA; Cat. No. PV5100).
Time-Resolved Fluorescence Resonance Energy Transfer (TR-FRET) is a technology based on energy transfer between two adjacent dyes, from an excited electron in one dye (the donor) to an electron of an adjacent dye (the acceptor) through resonance, then released as a photon. This energy transfer is detected by an increase in the fluorescence emission of the acceptor, and a decrease in the fluorescence emission of the donor. TR-FRET assays for protein kinases use a long-lifetime lanthanide Terbium or Europium chelates as the donor species which overcome interference from compound autofluorescence or light scatter from precipitated compounds, by introducing a delay after excitation by a flashlamp excitation source. Results are often expressed as a ratio of the intensities of the acceptor and donor fluorophores.
Work on C[C@H]1C(CC(C)(C)O)OC(=O)N1c1cc(-c2cnc(N)nc2C(F)(F)F)nc(N2CCOCC2)n1 (mixture of isomers) [Example 26, (4S,5R)- and (4S,5S)-3-(2′-amino-2-morpholino-4′-(trifluoromethyl)-[4,5′-bipyrimidin]-6-yl)-5-(2-hydroxy-2-methylpropyl)-4-methyloxazolidin-2-one] yielded a pIC50 of 7.92.
In the case of CC1(CO)COC(=O)N1c1cc(-c2cnc(N)nc2C(F)(F)F)nc(N2CCOCC2)n1 (racemic) [Example 3, 3-(2′-amino-2-morpholino-4′-(trifluoromethyl)-4,5′-bipyrimidin-6-yl)-4-(hydroxymethyl)-4-methyloxazolidin-2-one], the pIC50 was 7.92.
Nc1ncc(-c2cc(N3C(=O)O[C@@H]4[C@@H](O)CC[C@@H]43)nc(N3CCOCC3)n2)c(C(F)(F)F)n1 (racemic) [Example 22, (3aR*,6R*,6aR*)-3-(2′-Amino-2-morpholino-4′-(trifluoromethyl)-[4,5′-bipyrimidin]-6-yl)-6-hydroxyhexahydro-2H-cyclopenta[d]oxazol-2-one] gave a pIC50 of 8.22.
In the case of Nc1ncc(-c2cc(N3C(=O)OC4C(O)CCC43)nc(N3CCOCC3)n2)c(C(F)(F)F)n1 (single isomer, unassigned) [Example 22A], the pIC50 was 8.40.
In the case of Nc1ncc(-c2cc(N3C(=O)OC4C(O)CCC43)nc(N3CCOCC3)n2)c(C(F)(F)F)n1 (single isomer, unassigned) [Example 22B], the pIC50 was 8.30.
C[C@@H](O)C[C@H]1OC(=O)N(c2cc(-c3cnc(N)nc3C(F)(F)F)nc(N3CCOCC3)n2)[C@H]1C (single isomer, unassigned) [Example 24] showed a pIC50 of 8.05.
In the case of C[C@H](O)CC1OC(=O)N(c2cc(-c3cnc(N)nc3C(F)(F)F)nc(N3CCOCC3)n2)[C@H]1C (single isomer, unassigned) [Example 25], the pIC50 was 8.15.
In the case of C[C@H]1COC(=O)N1c1cc(-c2cnc(N)nc2C(F)(F)F)nc(N2CCOCC2)n1 [Example 1, (S)-3-(2′-Amino-2-morpholin-4-yl-4′-trifluoromethyl-[4,5′]bipyrimidinyl-6-yl)-4-methyl-oxazolidin-2-one], the pIC50 was 8.15.
Molecule CC1(C)OC(=O)N(c2cc(-c3cnc(N)nc3C(F)(F)F)nc(N3CCOCC3)n2)[C@H]1CO [Example 2, (S)-3-(2′-Amino-2-morpholin-4-yl-4′-trifluoromethyl-[4,5′]bipyrimidinyl-6-yl)-4-hydroxymethyl-5,5-dimethyl-oxazolidin-2-one] has a pIC50 of 7.12.
In the case of Nc1ncc(-c2cc(N3C(=O)O[C@H]4CCCC[C@@H]43)nc(N3CCOCC3)n2)c(C(F)(F)F)n1 [Example 4, (3aS,7aS)-3-(2′-Amino-2-morpholin-4-yl-4′-trifluoromethyl-[4,5′]bipyrimidinyl-6-yl)-hexahydro-benzooxazol-2-one], the pIC50 was 8.40.
For COC[C@H]1COC(=O)N1c1cc(-c2cnc(N)nc2C(F)(F)F)nc(N2CCOCC2)n1 [Example 5, (S)-3-(2′-Amino-2-morpholin-4-yl-4′-trifluoromethyl-[4,5′]bipyrimidinyl-6-yl)-4-methoxymethyl-oxazolidin-2-one], the pIC50 was 8.40.
Molecule C[C@@H]1OC(=O)N(c2cc(-c3cnc(N)nc3C(F)(F)F)nc(N3CCOCC3)n2)[C@H]1CO [Example 6] has a pIC50 of 7.96.
Work on [2H]C1([2H])OC([2H])([2H])C([2H])([2H])N(c2nc(-c3cnc(N)nc3C(F)(F)F)cc(N3C(=O)O[C@H](C)[C@@H]3CO)n2)C1([2H])[2H] [Example 8] yielded a pIC50 of 7.68.
With Nc1ncc(-c2cc(N3C(=O)OC[C@@H]3CCO)nc(N3CCOCC3)n2)c(C(F)(F)F)n1 [Example 9, (S)-3-(2′-Amino-2-morpholin-4-yl-4′-trifluoromethyl-[4,5′]bipyrimidinyl-6-yl)-4-(2-hydroxy-ethyl)-oxazolidin-2-one] the pIC50 was 7.49.
C[C@H]1OC(=O)N(c2cc(-c3cnc(N)nc3C(F)(F)F)nc(N3CCOC[C@@H]3C)n2)[C@H]1CO [Example 10, (4S,5R)-3-[2′-Amino-2-((S)-3-methyl-morpholin-4-yl)-4′-trifluoromethyl-[4,5′]bipyrimidinyl-6-yl]-4-hydroxymethyl-5-methyl-oxazolidin-2-one] gave a pIC50 of 7.92.
Work on Nc1ncc(-c2cc(N3CCOC3=O)nc(N3CCOCC3)n2)c(C(F)(F)F)n1 [Example 11, 3-(2′-Amino-2-morpholin-4-yl-4′-trifluoromethyl-[4,5′]bipyrimidinyl-6-yl)-oxazolidin-2-one, reference compound] yielded a pIC50 of 7.54.
Molecule C[C@H]1OC(=O)N(c2cc(-c3cnc(N)nc3C(F)(F)F)nc(N3CCOCC3)n2)[C@H]1COC=O [Example 12, Formic acid (4S,5R)-3-(2′-amino-2-morpholin-4-yl-4′-trifluoromethyl-[4,5′]bipyrimidinyl-6-yl)-5-methyl-2-oxo-oxazolidin-4-ylmethyl ester] has a pIC50 of 7.23.
Work on C[C@H]1COCCN1c1nc(-c2cnc(N)nc2C(F)(F)F)cc(N2C(=O)OC[C@@H]2C)n1 [Example 13, (S)-3-[2′-Amino-2-((S)-3-methyl-morpholin-4-yl)-4′-trifluoromethyl-[4,5′]bipyrimidinyl-6-yl]-4-methyl-oxazolidin-2-one] yielded a pIC50 of 7.68.
Nc1ncc(-c2cc(N3C[C@@H](CO)OC3=O)nc(N3CCOCC3)n2)c(C(F)(F)F)n1 [Example 14, (S)-3-(2′-Amino-2-morpholin-4-yl-4′-trifluoromethyl-[4,5′]bipyrimidinyl-6-yl)-5-hydroxymethyl-oxazolidin-2-one] gave a pIC50 of 7.77.
C[C@H]1[C@H](CO)OC(=O)N1c1cc(-c2cnc(N)nc2C(F)(F)F)nc(N2CCOCC2)n1 [Example 15, (4S,5R)-3-(2′-Amino-2-morpholin-4-yl-4′-trifluoromethyl-[4,5′]bipyrimidinyl-6-yl)-5-hydroxymethyl-4-methyl-oxazolidin-2-one] was tested, and the pIC50 was 7.82.
C[C@H]1CN(c2cc(-c3cnc(N)nc3C(F)(F)F)nc(N3CCOCC3)n2)C(=O)O1 [Example 16, (S)-3-(2′-Amino-2-morpholin-4-yl-4′-trifluoromethyl-[4,5′]bipyrimidinyl-6-yl)-5-methyl-oxazolidin-2-one] was tested, and the pIC50 was 7.68.

From patent US8865894B2, “Oxazolidin-2-one compounds and uses thereof” (Novartis AG, priority 2012, dated 2014)
